According to patent US20110275703A1, “SUBSTITUTED SPIROKETAL DERIVATIVES AND USE THEREOF AS THERAPEUTIC DRUG FOR DIABETES” (CHUGAI SEIYAKU KABUSHIKI KAISHA, priority 2007, published 2011):
Like-named read-outs stand apart in the source and are kept apart here.

Tests used:
human SGLT2 = molecular target: T1, human SGLT2 (Homo sapiens, UniProt P31639); experiment: Inhibitory activity against methyl-α-D-glucopyranoside uptake, CHO cells stably expressing human SGLT2; format: cell-based; conditions: inhibition of SGLT2, Table 2-1; read-out: IC50 value
T1 construct: expressed in transfected cells; host or cells: CHO-K1
T1 sequence (P31639 1-672): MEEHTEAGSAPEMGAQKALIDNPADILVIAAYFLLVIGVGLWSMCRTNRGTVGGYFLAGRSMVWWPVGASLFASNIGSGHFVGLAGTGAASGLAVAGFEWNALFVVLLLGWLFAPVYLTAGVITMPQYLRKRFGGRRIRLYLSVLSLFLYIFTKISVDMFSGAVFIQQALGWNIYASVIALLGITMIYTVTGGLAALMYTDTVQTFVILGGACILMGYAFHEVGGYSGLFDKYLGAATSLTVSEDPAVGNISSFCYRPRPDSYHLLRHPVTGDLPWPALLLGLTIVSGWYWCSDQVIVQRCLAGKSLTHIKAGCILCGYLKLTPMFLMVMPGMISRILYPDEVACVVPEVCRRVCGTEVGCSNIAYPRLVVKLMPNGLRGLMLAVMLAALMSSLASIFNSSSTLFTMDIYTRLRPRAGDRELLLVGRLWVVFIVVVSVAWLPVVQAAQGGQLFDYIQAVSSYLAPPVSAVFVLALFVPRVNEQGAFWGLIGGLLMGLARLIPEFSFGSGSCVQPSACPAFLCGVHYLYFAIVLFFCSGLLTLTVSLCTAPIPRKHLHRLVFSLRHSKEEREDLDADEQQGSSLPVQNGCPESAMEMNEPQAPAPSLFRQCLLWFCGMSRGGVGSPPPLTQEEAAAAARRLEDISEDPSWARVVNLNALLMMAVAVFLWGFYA
From the text: Evaluation of inhibitory activity against methyl-α-D-glucopyranoside uptake of human Na^+-glucose cotransporter (SGLT1 and SGLT2)
2) Construction of Human SGLT2 Expression Vector
Human SGLT2 cDNA was amplified by PCR with a cDNA library derived from human kidney (Clontech) as a template, synthetic DNA primers and KOD+ DNA Polymerase. The amplified cDNA was inserted into pcRII-Topo vector by using a Topo TA Cloning Dual Promoter kit. E. coli competent cells (TPO10) were transformed with the plasmid vector, cultured in LB medium containing ampicillin (50 mg/L) to grow ampicillin-resistant clones. The plasmid vector containing human SGLT2 cDNA was purified from the clone in a standard manner. Human SGLT2 cDNA added restriction enzyme recognition sites (Xho I at 5′-end, Hind III at 3′-end) was amplified by PCR with the plasmid vector as a template, synthetic DNA primers containing an additional restriction enzyme recognition site and KOD+ DNA Polymerase. This amplified cDNA was digested with Xho I and Hind III, and ligated into expression vector pcDNA3.1(−) digested with Xho I and Hind III by using a Rapid DNA Ligation kit. E. coli competent cells (DH5α) were transformed with the ligated expression vector and grown in ampicillin-containing LB medium. Human SGLT2 expression vector was purified from the ampicillin-resistant clone in a standard manner.
3) Establishment of Cell Lines Stably Expressing Human SGLT1 or Human SGLT2
The human SGLT1 expression vector or the human SGLT2 expression vector was digested with the restriction enzyme Pvu I and transfected into CHO-Kl cells with FuGENE (Roche Diagonostics). After the transfection, the cells were cultured at 37° C. in the presence of 5% CO2 for about 3 weeks in DMEM medium (Gibco) containing penicillin (50 U/mL, SIGMA), streptomycin (50 mg/L, SIGMA), geneticin (200 mg/L, Nacalai Tesque, Inc., Japan) and 20% fetal bovine serum to obtain geneticin-resistant clones. Among these clones, clones stably expressing human SGLT1 or human SGLT2 were selected by the evaluating the sodium-dependent uptake activity of sugar (methyl-α-D-glucopyranoside).
4) Evaluation of Inhibitory Activity Against methyl-α-D-glucopyranoside uptake
Cell lines stably expressing human SGLT1 or human SGLT2 CHO were seeded in 96-well culture plates at a density of 30000 to 40000 cells/well and cultured for 4 to 6 days. The medium in these plates was removed and replaced by 150 μL/well pretreatment buffer (i.e., a buffer containing 140 mM choline chloride, 2 mM potassium chloride, 1 mM calcium chloride, 1 mM magnesium chloride, 10 mM 2-[4-(2-hydroxyethyl)-1-piperazinyl]ethanesulfonic acid and tris(hydroxymethyl)aminomethane, pH 7.4), and the plates were incubated at 37° C. for 20 minutes. The pretreatment buffer in the plates was removed, replaced by 50 μL/well fresh pretreatment buffer, and the plates were incubated at 37° C. for 20 minutes. Methyl-α-D-(U—^14C)glucopyranoside (6.3 mL, Amersham Pharmacia Biotech, 200 mCi/L) was added to and mixed with 100 mL buffer (i.e., a buffer containing 140 mM sodium chloride, 2 mM potassium chloride, 1 mM calcium chloride, 1 mM magnesium chloride, 1 mM methyl-α-D-glucopyranoside, 10 mM [4-(2-hydroxyethyl)-1-piperazinyl]ethanesulfonic acid and tris(hydroxymethyl)aminomethane, pH 7.4), which was used as uptake buffer. Test compounds were dissolved into uptake buffer and these test compound solutions were used for evaluating inhibitory activity. Uptake buffer without a test compound was used as a control solution. Moreover, for use in measuring baseline uptake in the absence of sodium, sodium-free solution was prepared in the same manner to contain 140 mM choline chloride instead of sodium chloride. The pretreatment buffer was removed from each well of the plates and replaced by 35 μL/well test compound solutions, control solution or sodium-free solution, and the plates were incubated at 37° C. for 45 minutes. […]

db/db mice = experiment: Study for glucose lowering effect in db/db mouse; format: in vivo; conditions: Mus musculus, 6 hours
Method: Study for Glucose Lowering Effect in dB/dB Mouse
A study for glucose lowering effect was conducted using db/db mice (purchased from Clea Japan, Inc., male, 9 to 11 weeks old), type 2 diabetic model mice. On the day of the study, body weights and blood glucose levels were measured prior to the start of testing. Measurement of the blood glucose levels was performed using a simple blood glucose meter (manufactured by Bayer HealthCare, Dexter-Z II). The mice were allocated to some groups consisting of 5 mice each so that homogeneity of body weights or blood glucose levels among groups would be ensured. Blood collection was carried out by making an incision on the tip of the tail and taking the blood therefrom. On the day of the study, the test compounds were suspended in 0.5% carboxymethylcellulose solution (CMC solution), and the dosing solutions of which concentration was adjusted to either 0.3 mg/10 mL or 3 mg/10 mL were prepared. The dosing solutions were orally administered by gavage for mice in 10 mL/kg. To the control group, only a 0.5% CMC solution was orally administered in 10 mL/kg. Blood was collected prior to or sequentially after administration of test compounds by above method. The blood glucose levels were determined using a hexokinase method (AutoSera S GLU, manufactured by Daiichi Pure Chemicals Co., Ltd.). A percent reduction of blood glucose relative to control group at each time point after administration of test compounds was calculated by the following equation.
Percent reduction of blood glucose (%)={blood glucose level in the control group (mg/dL)-blood glucose level in the test compound group (mg/dL)}/blood glucose level in the control group (mg/dL)×100

[1] = po, 0.3 mg/kg administration, read-out: reduction of blood glucose 6 hours after administration

Row | SMILES | IC50 (human SGLT2) | inhibition in vivo at 0.3 mg/kg (db/db mice; [1]) | inhibition in vivo at 0.3 mg/kg (db/db mice; oral, 0.3 mg/kg, relative to control group, Table 3-1, read-out: Percent reduction of blood glucose (%) 6 hours after administration)
1 | CCc1ccc(Cc2cc3c(cc2F)CO[C@]32O[C@H](CO)[C@@H](O)[C@H](O)[C@H]2O)cc1 [Example 16, (1S,3′R,4′S,5′S,6′R)-6-[(4-ethylphenyl)methyl]-5-fluoro-3′,4′,5′,6′-tetrahydro-6′-(hydroxymethyl)-spiro[isobenzofuran-1(3H),2′-[2H]pyran]-3′,4′,5′-triol] | 1.5 nM | ≥ 25% | 
2 | CCOc1ccc(Cc2cc3c(cc2F)CO[C@]32O[C@H](CO)[C@@H](O)[C@H](O)[C@H]2O)cc1 [Example 17, (1S,3′R,4′S,5′S,6′R)-6-[(4-ethoxyphenyl)methyl]-5-fluoro-3′,4′,5′,6′-tetrahydro-6′-(hydroxymethyl)-spiro[isobenzofuran-1(3H),2′-[2H]pyran]-3′,4′,5′-triol] | 2.6 nM |  | 33%
3 | Cc1ccc(Cc2cc3c(cc2F)CO[C@]32O[C@H](CO)[C@@H](O)[C@H](O)[C@H]2O)cc1 [Example 18, (1S,3′R,4′S,5′S,6′R)-5-fluoro-3′,4′,5′,6′-tetrahydro-6′-(hydroxymethyl)-6-[(4-methylphenyl)methyl]-spiro[isobenzofuran-1(3H),2′-[2H]pyran]-3′,4′,5′-triol] | 1.7 nM | ≥ 25% | 
4 | CC(C)c1ccc(Cc2cc3c(cc2F)CO[C@]32O[C@H](CO)[C@@H](O)[C@H](O)[C@H]2O)cc1 [Example 19, (1S,3′R,4′S,5′S,6′R)-5-fluoro-3′,4′,5′,6′-tetrahydro-6′-(hydroxymethyl)-6-[(4-isopropylphenyl)methyl]-spiro[isobenzofuran-1(3H),2′-[2H]pyran]-3′,4′,5′-triol] | 2 nM | ≥ 25% | 
5 | COc1ccc(Cc2cc3c(cc2F)CO[C@]32O[C@H](CO)[C@@H](O)[C@H](O)[C@H]2O)cc1 [Example 20, (1S,3′R,4′S,5′S,6′R)-5-fluoro-3′,4′,5′,6′-tetrahydro-6′-(hydroxymethyl)-6-[(4-methoxyphenyl)methyl]-spiro[isobenzofuran-1(3H),2′-[2H]pyran]-3′,4′,5′-triol] | 2.2 nM | ≥ 25% | 
6 | Cc1cc2c(cc1Cc1ccc(C(F)(F)F)cc1)[C@]1(OC2)O[C@H](CO)[C@@H](O)[C@H](O)[C@H]1O [Example 26, (1S,3′R,4′S,5′S,6′R)-6-[(4-trifluoromethylphenyl)methyl]-3′,4′,5′,6′-tetrahydro-6′-(hydroxymethyl)-5-methyl-spiro[isobenzofuran-1(3H),2′-[2H]pyran]-3′,4′,5′-triol] | 2.8 nM | ≥ 25% | 
7 | Cc1cc2c(cc1Cc1ccc(OC(F)(F)F)cc1)[C@]1(OC2)O[C@H](CO)[C@@H](O)[C@H](O)[C@H]1O [Example 27, (1S,3′R,4′S,5′S,6′R)-6-[(4-trifluoromethoxyphenyl)methyl]-3′,4′,5′,6′-tetrahydro-6′-(hydroxymethyl)-5-methyl-spiro[isobenzofuran-1(3H),2′-[2H]pyran]-3′,4′,5′-triol] | 2.6 nM | ≥ 25% | 
8 | OC[C@H]1O[C@]2(OCc3cc(Cl)c(Cc4cccs4)cc32)[C@H](O)[C@@H](O)[C@@H]1O [Example 30, (1S,3′R,4′S,5′S,6′R)-5-chloro-3′,4′,5′,6′-tetrahydro-6′-(hydroxymethyl)-6-[(thiophen-2-yl)methyl]-spiro[isobenzofuran-1(3H),2′-[2H]pyran]-3′,4′,5′-triol] | 1.3 nM | ≥ 25% | 

More lines, main results first:

Row | IC50 (human SGLT2) | SMILES | inhibition in vivo at 0.3 mg/kg (db/db mice; [1]) | inhibition in vivo at 0.3 mg/kg (db/db mice; oral, 0.3 mg/kg, relative to control group, Table 3-1, read-out: Percent reduction of blood glucose (%) 6 hours after administration)
9 | 1.1 nM | Cc1cc2c(cc1Cc1ccc(CCF)cc1)[C@]1(OC2)O[C@H](CO)[C@@H](O)[C@H](O)[C@H]1O [Example 22, (1S,3′R,4′S,5′S,6′R)-6-[(4-(2-fluoroethyl)phenyl)methyl]-5-methyl-3′,4′,5′,6′-tetrahydro-6′-(hydroxymethyl)-spiro[isobenzofuran-1(3H),2′-[2H]pyran]-3′,4′,5′-triol] | ≥ 25% | 
10 | 1.5 nM | COc1ccc(Cc2cc3c(cc2C)CO[C@]32O[C@H](CO)[C@@H](O)[C@H](O)[C@H]2O)cc1 [Example 23, (1S,3′R,4′S,5′S,6′R)-3′,4′,5′,6′-tetrahydro-6′-(hydroxymethyl)-6-[(4-methoxyphenyl)methyl]-5-methyl-spiro[isobenzofuran-1(3H),2′-[2H]pyran]-3′,4′,5′-triol] | ≥ 25% | 
11 | 1.8 nM | CCOc1ccc(Cc2cc3c(cc2C)CO[C@]32O[C@H](CO)[C@@H](O)[C@H](O)[C@H]2O)cc1 [Example 24, (1S,3′R,4′S,5′S,6′R)-6-[(4-ethoxyphenyl)methyl]-3′,4′,5′,6′-tetrahydro-6′-(hydroxymethyl)-5-methyl-spiro[isobenzofuran-1(3H),2′-[2H]pyran]-3′,4′,5′-triol] | ≥ 25% | 
12 | 2.3 nM | CCCc1ccc(Cc2cc3c(cc2C)CO[C@]32O[C@H](CO)[C@@H](O)[C@H](O)[C@H]2O)cc1 [Example 25, (1S,3′R,4′S,5′S,6′R)-3′,4′,5′,6′-tetrahydro-6′-(hydroxymethyl)-5-methyl-6-[(4-propylphenyl)methyl]-spiro[isobenzofuran-1(3H),2′-[2H]pyran]-3′,4′,5′-triol] | ≥ 25% | 
